Measurements taken from patent US6503912B1, “Substituted guanidine derivatives” (Bayer Aktiengesellschaft, priority 1998, dated 2003).

Key:
[1] = system: peach aphid (Myzus persicae); assay: Myzus Test; type: in vivo; settings: active compound concentration 0.1%; dipped cabbage leaves; after 6 days
Protocol: (§1) Solvent: 7 parts by weight of dimethylformamide
(§2) Emulsifier: 1 part by weight of alkylaryl polyglycol ether
(§3) To produce a suitable preparation of active compound, 1 part by weight of active compound is mixed with the stated amount of solvent, and the stated amount of emulsifier, and the concentrate is diluted with water to the desired concentration.
Cabbage leaves (Brassica oleracea) which are heavily infested by the peach aphid (Myzus persicae) are treated by being dipped into the preparation of active compound of the desired concentration.
(§4) After the desired period of time, the kill in % is determined. 100% means that all aphids have been killed; 0% means that none of the aphids has been killed.

[2] = system: Lucilia cuprina larvae; assay: Blowfly Larvae Test/development-inhibitory Action; type: in vivo; settings: active compound concentration 100 ppm; flies hatched after 1.5 times the development period of untreated control
Protocol: Blowfly Larvae Test/development-inhibitory Action
Test animals: Lucilia cuprina larvae
Solvent: Dimethyl sulfoxide
20 mg of active compound are dissolved in 1 ml of dimethyl sulfoxide, more dilute concentrations are prepared by dilution with Dest.H2O.
About 20 Lucilia cuprina larvae are introduced into a test tube which contains about 1 cm^3 of horse meat and 0.5 ml of the preparation of active compound to be tested. After 24 hours and 48 hours, the effectiveness of the preparation of active compound is determined. The test tubes are transferred into beakers whose bottom is covered with sand. After a further 2 days, the test tubes are removed and the pupae are counted.
The effect of the preparation of active compound is assessed by the number of flies which have hatched after 1.5 times the development period of an untreated control. 100% means that no flies have hatched; 0% means that all flies have hatched normally.

[3] = system: mustard beetle larvae (Phaedon cochleariae); assay: Phaedon larvae Test; type: in vivo; settings: active compound concentration 0.1%; dipped cabbage leaves; after 7 days
Protocol: as §1, §2
To produce a suitable preparation of active compound, 1 part by weight of active compound is mixed with the stated amount of solvent and the stated amount of emulsifier, and the concentrate is diluted with water to the desired concentration.
Cabbage leaves (Brassica oleracea) are treated by being dipped into the preparation of active compound of the desired concentration and are populated with mustard beetle larvae (Phaedon cochleariae) whilst the leaves are still moist.
After the desired period of time, the kill in % is determined. 100% means that all beetle larvae have been killed; 0% means that none of the beetle larvae has been killed.

[4] = system: larvae of the green rice leaf-hopper (Nephotettix cincticeps); assay: Nephotettix Test; type: in vivo; settings: active compound concentration 0.1%; dipped rice seedlings; after 6 days
Protocol: as §1, §2, §3
Rice seedlings (Oryza sativa) are treated by being dipped into the preparation of active compound of the desired concentration and are populated with larvae of the green rice leaf-hopper (Nephotettix cincticeps) while the seedlings are still moist.
After the desired period of time, the kill in % is determined. 100% means that all leaf-hoppers have been killed; 0% means that none of the leaf-hoppers has been killed.

[5] = system: larvae of the army worm (Spodoptera frugiperda); assay: Spodoptera Frugiperda Test; type: in vivo; settings: active compound concentration 0.1%; dipped cabbage leaves; after 7 days
Protocol: Spodoptera Frugiperda Test
as §1, §2
To produce a suitable preparation of active compound, 1 part by weight of active compound is mixed with the stated amounts of solvent and emulsifier, and the concentrate is diluted with water to the desired concentration.
Cabbage leaves (Brassica oleracea) are treated by being dipped into the preparation of active compound of the desired concentration and are populated with larvae of the army worm (Spodoptera frugiperda) whilst the leaves are still moist.
After the desired period of time, the kill in % is determined. 100% means that all larvae have been killed; 0% means that none of the larvae has been killed.

[6] = not given; remark: listed apart in the source
[7] = system: black bean aphid (Aphis fabae); assay: Aphis Test (Systemic Action); type: in vivo; settings: active compound concentration 0.01%, watering of Vicia faba, after 4 days
Protocol: Aphis Test (Systemic Action)
as §1, §2, §3
Bean plants (Vicia faba) which are heavily infested by the black bean aphid (Aphis fabae) are watered with in each case 20 ml of the preparation of active compound of the desired concentration so that the preparation of active compound penetrates into the soil without wetting the shoot. The active compound is taken up by the roots and passed on to the shoot.
as §4

[8] = system: Aphis fabae; assay: Critical Concentration Test/root-systemic Action; type: in vivo; settings: 20 ppm in soil; broad beans; leaves populated after 7 days, evaluation after a further 6 days
Protocol: Critical Concentration Test/root-systemic Action
Solvent: 4 parts by weight of acetone
as §2
To produce a suitable preparation of active compound, 1 part by weight of active compound is mixed with the stated amount of solvent, the stated amount of emulsifier is added and the concentrate is diluted with water to the desired concentration.
The preparation of active compound is mixed intimately with soil. The concentration of the active compound in the preparation is virtually immaterial, only the amount by weight of active compound per volume unit of soil, which is stated in ppm (=mg/l), matters. The treated soil is filled into pots which are planted with pregerminated broad beans. Thus, the active compound can be taken up from the soil by the plant roots and transported into the leaves.
After a further 6 days, evaluation is carried out by counting or estimating the dead animals. The root-systemic action of the active compound is deduced from the number of animals killed. It is 100% when all test animals have been killed and 0% when the number of live test insects is identical to that of the untreated control.

[9] = system: Mosquito larvae (Aedes aegypti); assay: Aedes Test; type: in vivo; settings: active compound concentration 0.0016%; after 4 hours
Protocol: Solvent: 1000 parts by weight of methanol
To produce a suitable preparation of active compound, 1 part by weight of active compound is mixed with the stated amount of solvent, and the concentrate is diluted with water to the desired concentrations.
Mosquito larvae (Aedes aegypti) are placed into the preparation of active compound of the desired concentration.
After the desired period of time, the effect on the larvae is determined.

[10] = system: larva (L2-L3) of the army worm (Spodoptera frugiperda); assay: Spodoptera Frugiperda Test/artificial Feed; type: in vivo; settings: active compound concentration 0.05%; artificial feed; after 7 days
Protocol: Spodoptera Frugiperda Test/arfificial Feed
(§5) Solvent: 100 parts by weight of acetone
(§6) 1900 parts by weight of methanol
(§7) To produce a suitable preparation of active compound, 1 part by weight of active compound is mixed with the stated amount of solvent, and the concentrate is diluted with methanol to the desired concentration.
A stated amount of the preparation of active compound of the desired concentration is pipetted onto a standardized quantity of artificial feed. After the methanol has evaporated, in each case one larva (L2-L3) of the army worm (Spodoptera frugiperda) is placed onto the feed, in 3 repetitions.
After the desired period of time, the kill in % is determined. 100% means that all animals have been killed; 0% means that none of the animals has been killed.

[11] = system: eggs of the onion fly (Hylemyia antiqua); assay: Hylemyia Test; type: in vivo; settings: active compound concentration 0.05%; artificial feed; after 7 days
Protocol: as §5, §6, §7
A stated amount of the preparation of active compound of the desired concentration is pipetted onto a standardized quantity of artificial feed. After the methanol has evaporated, about 20 eggs of the onion fly (Hylemyia antiqua) are placed on the feed.
After the desired period of time, the kill of the eggs or larvae in % is determined. 100% means that all animals have been killed; 0% means that none of the animals has been killed.

| Structure (SMILES) | logP (pH = 2.3) | kill [1] [%] | kill [3] [%] | kill [4] [%] | kill [5] [%] | further results |
| --- | --- | --- | --- | --- | --- | --- |
| COCN1CCN(Cc2ccc(Cl)nc2)C1=NC#N [Example 29] | 1.32 |  |  |  |  |  |
| CCCOCn1ccn(Cc2ccc(Cl)nc2)c1=N[N+](=O)[O-] [Example 11] |  | 100 |  |  |  | development-inhibitory effect [2]: 100% |
| O=[N+]([O-])N=C1N(COCCBr)CCN1Cc1ccc(Cl)nc1 [Example 53] | 1.64 |  |  |  |  |  |
| CC(C)(C)C(=O)OCN1CCN(Cc2ccc(Cl)nc2)C1=N[N+](=O)[O-] [Example 25] |  | 100 | 100 | 100 | 100 |  |
| CCOCN1CCN(Cc2cnc(Cl)s2)C1=N[N+](=O)[O-] [Example 17] | 1.40 | 100 | 100 |  | 100 |  |
| CC(=O)OCN1CCN(Cc2ccc(Cl)nc2)C1=N[N+](=O)[O-] [Example 33] |  |  | 100 | 100 | 100 |  |
| CC(C)COCN1CCN(Cc2ccc(Cl)nc2)C1=N[N+](=O)[O-] [Example 13] | 2.00 | 100 |  | 100 | 100 | development-inhibitory effect [2]: 100% |
| CC(C)COCn1ccn(Cc2ccc(Cl)nc2)c1=N[N+](=O)[O-] [Example 15] |  | 100 |  | 100 |  |  |
| CCCCOCN1CCN(Cc2ccc(Cl)nc2)C1=N[N+](=O)[O-] [Example 40] | 1.98 |  |  |  |  |  |
| CC(C)C(=O)OCN1CCN(Cc2ccc(Cl)nc2)C1=N[N+](=O)[O-] [Example 36] |  | 100 | 100 | 100 | 100 |  |
| O=[N+]([O-])/N=c1\n(COCCBr)ccn1Cc1ccc(Cl)nc1 |  |  |  |  |  | melting point [6]: 90 to 92 °C |
| CCCCOCn1ccn(Cc2ccc(Cl)nc2)c1=N[N+](=O)[O-] [Example 41] | 1.72 |  |  |  |  |  |
| COCn1ccn(Cc2ccc(Cl)nc2)c1=N[N+](=O)[O-] [Example 9] | 0.78 |  |  |  |  | kill [7]: 100%; development-inhibitory effect [2]: 100% |
| CCC(=O)OCN1CCN(Cc2ccc(Cl)nc2)C1=N[N+](=O)[O-] [Example 35] | 1.50 |  | 100 |  | 100 |  |
| CC(C)(C)COCN1CCN(Cc2ccc(Cl)nc2)C1=N[N+](=O)[O-] [Example 20] |  | 100 |  |  | 100 |  |
| CCCCCOCN1CCN(Cc2ccc(Cl)nc2)C1=N[N+](=O)[O-] [Example 22] | 2.35 |  |  |  |  |  |
| CCCOCN1CCN(Cc2cnc(Cl)s2)C1=N[N+](=O)[O-] [Example 2, 1-(2-chloro-thiazol-5-yl-methyl)-2-nitroimino-3-n-propoxymethyl-imidazolidine] |  |  |  |  | 100 |  |
| CCCCCCCCOCN1CCN(Cc2ccc(Cl)nc2)C1=N[N+](=O)[O-] [Example 5] | 3.55 |  |  |  |  | kill (root-systemic action) [8]: 100%; kill [9]: 100%; kill [7]: 95% |

| Structure (SMILES) | logP (pH = 2.3) | kill [1] [%] | kill [3] [%] | kill [4] [%] | kill [5] [%] | further results |
| --- | --- | --- | --- | --- | --- | --- |
| CC(C)OCN1CCN(Cc2ccc(Cl)nc2)C1=NC#N |  |  |  |  |  | melting point [6]: 85 to 87 °C |
| CC(C)OCN1CCN(Cc2ccc(Cl)nc2)C1=N[N+](=O)[O-] [Example 12] |  | 100 | 100 | 100 | 100 | development-inhibitory effect [2]: 100% |
| CCC(C)OCN1CCN(Cc2ccc(Cl)nc2)C1=N[N+](=O)[O-] (centres unmarked) [Example 21] | 1.86 |  | 100 | 100 |  |  |
| CCCCCCOCN1CCN(Cc2ccc(Cl)nc2)C1=N[N+](=O)[O-] [Example 23] | 2.73 |  |  |  |  |  |
| CCCOCN1CCN(Cc2ccc(Cl)nc2)C1=N[N+](=O)[O-] [Example 10] | 1.64 | 100 | 100 | 100 | 100 | development-inhibitory effect [2]: 100% |
| CCOCN1CCN(Cc2ccc(Cl)nc2)C1=N[N+](=O)[O-] [Example 4] |  |  | 100 | 100 |  | kill (root-systemic action) [8]: 100%; kill [9]: 100%; kill [10]: 100%; kill [7]: 100%; kill of the eggs or larvae [11]: 100% |
| CCN(CC)CCOCN1CCN(Cc2ccc(Cl)nc2)C1=N[N+](=O)[O-] [Example 43] | 0.70 |  |  |  |  |  |
| COCCOCN1CCN(Cc2ccc(Cl)nc2)C1=NC#N [Example 31] | 1.40 |  |  |  |  |  |
| CC(C)COCN1CCN(Cc2cnc(Cl)s2)C1=N[N+](=O)[O-] [Example 19] | 2.12 |  | 100 | 100 |  |  |
| CC(C)OCN1CCN(Cc2cnc(Cl)s2)C1=N[N+](=O)[O-] [Example 18] | 1.65 | 100 | 100 | 100 | 100 |  |
| COCCOCN1CCN(Cc2ccc(Cl)nc2)C1=N[N+](=O)[O-] [Example 24] | 1.16 |  |  | 100 |  |  |
| CC(C)OCn1ccn(Cc2ccc(Cl)nc2)c1=N[N+](=O)[O-] [Example 14] |  | 100 |  | 100 |  |  |
| CCCOCN1CCN(Cc2ccc(Cl)nc2)C1=NC#N [Example 32] | 1.89 |  |  |  |  |  |
| CC(C)OCN1CCCN(Cc2ccc(Cl)nc2)C1=N[N+](=O)[O-] [Example 56] | 1.34 |  |  |  |  |  |
| COCN1CCN(Cc2cnc(Cl)s2)C1=N[N+](=O)[O-] [Example 16] | 1.14 | 100 |  |  |  |  |
| CCOCn1ccn(Cc2ccc(Cl)nc2)c1=N[N+](=O)[O-] [Example 6] | 1.09 |  |  |  |  |  |
| CCCCCCCCOCn1ccn(Cc2ccc(Cl)nc2)c1=N[N+](=O)[O-] [Example 7] |  |  |  |  |  | kill [9]: 100% |
